Results: US20220249598A1, “COMPOSITIONS TARGETING SPERM CALCINEURIN” (Kent State University, priority 2019, published 2022)
Entries after “also recorded” stand apart in the source; their conditions may differ.

How the values were obtained:
[1] = 0.1% tacrolimus formulations; cited from earlier work
[2] = test system: sperm GSK3; assay: GSK3 activity of sperm cells with p32 radioactive ATP; format: biochemical, mouse; settings: capacitating condition
Experimental: (§1) The effect of calcineurin inhibitor on GSK3αβ phosphorylation was studied by Western blot procedure. Calcium dependence of calcineurin mediated GSK3α regulation was also checked. Both GSK3 activity and Calcineurin activity were measured in presence of FK506. FIG. 3 illustrates the regulation of GSK3α in mouse sperm by FK506. A) Modulation of phospho-serine/tyrosine profile GSK3α by FK506 (20 nM) during capacitation; for capacitation spermatozoa were incubated with ‘capacitation medium’, HTF or TYH for ˜90 min. B) phosphor-serine GSK3α status was checked during capacitation with TYH medium having high fatty acid containing BSA. C) Possible involvement of AKT in mediation of calcineurin induced regulation of GSK3α. D) Validation of involvement of extracellular calcium in GSK3α regulation; no calcium salt was added in the ‘−Ca^2+’ set, 10 μM BAPTA-AM was used to chelate intra-sperm Ca^2+ ions; […] phosphorylation was compared between wild type and ppp3r2 knockout sperm extract E) GSK3 activity of sperm cells under capacitating condition was checked using p^32radioactive ATP for phosphorylation of substrate. F) Co-relation among intracellular free calcium levels of different maturational stages of sperm cells with calcineurin activity was measured; for negative control, 20 nM of FK506 was used. All data represent mean±SEM of n=4 for all the values. *p≤0.05, **p≤0.01 versus control.

[3] = molecular target: sperm calcineurin (Mus musculus, UniProt P26883+P48455+Q63811); assay: calcineurin activity in sperm; format: biochemical
Experimental: The effect of calcineurin inhibitor on GSK3αβ phosphorylation was studied by Western blot procedure. Calcium dependence of calcineurin mediated GSK3α regulation was also checked. Both GSK3 activity and Calcineurin activity were measured in presence of FK506. […] A) Modulation of phospho-serine/tyrosine profile GSK3α by FK506 (20 nM) during capacitation; for capacitation spermatozoa were incubated with ‘capacitation medium’, HTF or TYH for ˜90 min. B) phosphor-serine GSK3α status was checked during capacitation with TYH medium having high fatty acid containing BSA. C) Possible involvement of AKT in mediation of calcineurin induced regulation of GSK3α. D) Validation of involvement of extracellular calcium in GSK3α regulation; no calcium salt was added in the ‘−Ca^2+’ set, 10 μM BAPTA-AM was used to chelate intra-sperm Ca^2+ ions; CatSper1 phosphorylation was compared between wild type and ppp3r2 knockout sperm extract E) GSK3 activity of sperm cells under capacitating condition was checked using p^32radioactive ATP for phosphorylation of substrate. F) Co-relation among intracellular free calcium levels of different maturational stages of sperm cells with calcineurin activity was measured; for negative control, 20 nM of FK506 was used.

[4] = cited from earlier work
[5] = test system: oocytes; assay: IVF with oocytes pre-incubated with inhibitor, spermatozoa untreated; format: cell-based, mouse; settings: oocytes incubated with same concentration of FK506 (20 nM)
Experimental: FIG. 1 illustrates the effect of treatments of mouse caudal spermatozoa with calcineurin and GSK3 inhibitors on in vitro fertilization, indicated by two-cell stage formation. A) Spermatozoa were incubated under capacitating medium (viz. […] Additionally, oocytes were also incubated with same concentration of FK506, which it encounters during the IVF, the corresponding spermatozoa set was untreated. All data represent mean±SEM of n=3 for all the values. *p≤0.05 versus control. B) Dose response curve of FK506 at 0, 2.5, 5, 10, 20 & 50 nM concentration. C) Representative images showing effect of FK506 on IVF; black triangles directing the two-cell stage after fertilization of eggs.

[6] = test system: mouse sperm; assay: sperm motility / hyperactivation by computer assisted sperm analyzer (CASA); format: cell-based; settings: FK506 treatment 120-180 min, capacitation; FIG. 2B
Experimental: Another set of treated sperm cell was analyzed for its motility parameters using computer assisted sperm analyzer (CASA). Average path velocity (VAP), curvilinear velocity (VCL) and amplitude of lateral head displacement (ALH) were measured to assess hyperactivation. FIG. 2 illustrates the detection of FK506 induced defect in sperm motility and oocyte penetration. A) FK506 (20 nM) treated spermatozoa were used for both cumulus free zona intact oocytes as well as zona-free oocytes. B) Effect of FK506 treatment for (120-180 min) on sperm hyperactivation controlling parameters; VAP: average path velocity, VCL: curvilinear velocity, ALH: lateral head amplitude.

[7] = test system: GSK3α; assay: GSK3 phosphorylation in sperm by Western blot; format: cell-based, mouse; settings: FK506 20 nM during capacitation
Experimental: as §1

[8] = test system: mouse caudal spermatozoa; assay: in vitro fertilization (IVF) with inhibitor-treated spermatozoa, two-cell stage formation; format: cell-based
Experimental: Nanomolar doses of FK506 were used to treat spermatozoa and then use those cells were used for in vitro fertilization (IVF) assays. The treated spermatozoa were exposed to three different types oocyte conditions while performing IVF: a) regular IVF with intact oocyte-cumulus complex, b) cumulus-free intact oocyte and c) cumulus-free zona-free oocyte.
A) Spermatozoa were incubated under capacitating medium (viz. […] Additionally, oocytes were also incubated with same concentration of FK506, which it encounters during the IVF, the corresponding spermatozoa set was untreated. […] B) Dose response curve of FK506 at 0, 2.5, 5, 10, 20 & 50 nM concentration.

[9] = test system: mouse caudal spermatozoa; assay: IVF of treated spermatozoa with cumulus-free zona-free oocytes; format: cell-based; settings: FK506 20 nM, FIG. 2A
Experimental: Nanomolar doses of FK506 were used to treat spermatozoa and then use those cells were used for in vitro fertilization (IVF) assays. The treated spermatozoa were exposed to three different types oocyte conditions while performing IVF: a) regular IVF with intact oocyte-cumulus complex, b) cumulus-free intact oocyte and c) cumulus-free zona-free oocyte. FIG. 2 illustrates the detection of FK506 induced defect in sperm motility and oocyte penetration. A) FK506 (20 nM) treated spermatozoa were used for both cumulus free zona intact oocytes as well as zona-free oocytes. B) Effect of FK506 treatment for (120-180 min) on sperm hyperactivation controlling parameters; VAP: average path velocity, VCL: curvilinear velocity, ALH: lateral head amplitude.

## C=CC[C@@H]1/C=C(\C)C[C@H](C)C[C@H](OC)[C@H]2O[C@@](O)(C(=O)C(=O)N3CCCC[C@H]3C(=O)O[C@H](/C(C)=C/[C@@H]3CC[C@@H](O)[C@H](OC)C3)[C@H](C)[C@@H](O)CC1=O)[C@H](C)C[C@@H]2OC [FK506, tacrolimus]
[1]
  skin side effects: increased sensitivity of skin, burning, stinging or itching sensations
[2]
  catalytic activity of sperm GSK3: decrease in catalytic activity
[3]
  inhibition of sperm calcineurin: inhibits sperm calcineurin at nanomolar level
[4]; 0.1% tacrolimus formulations
  titer of the drug in blood: nanomolar titer
[4]; topical ointment
  bioavailability from an ointment formulation: ~0.5%
[5]
  reduction in fertilization after pre-treatment of oocytes: did not result in any reduction in fertilization
[6]
  hyperactivation of sperm (VAP, VCL, ALH): mostly unable to exhibit hyperactivity; also recorded: lack of attainment of hyperactivation
[7]
  net phosphorylation of sperm GSK3: increase in the net phosphorylation
[8]; FK506 at 0, 2.5, 5, 10, 20 & 50 nM
  inhibition of sperm ability to fertilize eggs in vitro, dose response: good enough to inhibit
[8]; sperm incubated 1 hr at 37° C. in capacitating medium, FK506 20 nM, cyclosporin A 10 μM, two-cell stage formation, FIG. 1A
  inhibition of fertilizing ability of sperm in vitro: significantly and independently inhibit; also recorded: inhibited fertilization
[9]
  fertilization of zona-free eggs by treated sperm: not affecting sperm cells to fertilize zona-free eggs
